Columns and labels:
[1] = ABTS radical-scavenging assay; conditions: mean ± SD
Description: The ABTS assay was determined according to Elbouzidi et al., with some modifications. The stock solutions included 7.4 mM ABTS and 2.6 mM potassium persulfate. ABTS radical cation was prepared by mixing the two stock solutions in equal quantities and allowed to stand for 16 h at room temperature in the dark. And then, ABTS radical solution was adjusted with phosphate-buffered saline (pH 7.4) to an absorbance of 0.7–0.8 at 734 nm. For this assay, 190 μL of ABTS radical solution was mixed with 10 μL of each test sample solution in 96-well plates. After 60 min, the decrease of absorbance was measured at 734 nm using a microplate reader (Thermo Fisher Scientific Inc., Waltham, MA, USA). The standard curve was linear between 0.025 and 0.9 mM Trolox. […] Additional dilution was needed if the ABTS value measured was over the linear range of the standard curve.

[2] = Ferric-reducing antioxidant power (FRAP) assay; conditions: concentration for 50% of maximal ferric-reducing capacity; mean ± SD, triplicate
Description: The antioxidant capacity of the tested compounds was evaluated using the ferric-reducing antioxidant power (FRAP) assay, based on the reduction of ferric-tripyridyltriazine (Fe^3+-TPTZ) complex to its ferrous form (Fe^2+), resulting in a blue-colored product with a maximum absorbance at 593 nm. The assay was performed according to the modified method of Benzie and Strain [13], with modifications for microplate format and adjusted concentration ranges according to Rodrigues et al.. The FRAP working solution was freshly prepared by mixing 300 mM acetate buffer (pH 3.6), 10 mM TPTZ in 40 mM HCl, and 20 mM FeCl3·6H2O in a 10:1:1 volume ratio. The mixture was warmed to 37 °C before use to ensure optimal reaction conditions. For each reaction, 180 µL of the freshly prepared FRAP reagent was added to a well of a 96-well microplate, followed by 20 µL of the test compound at different concentrations (1–200 µg/mL) prepared in methanol. The mixture was incubated at 37 °C for 30 min. The increase in absorbance was measured at 593 nm using a microplate reader. […] All measurements were performed in triplicate and presented as the mean ± standard deviation.

[3] = target: T1, α-amylase from porcine pancreas (Sus scrofa, UniProt P00690); assay: α-amylase inhibition assay (CNPG3 substrate); assay type: biochemical; conditions: experimental; means ± SD of three independent replicates; read-out: AAI IC50 (α-amylase inhibition) (converted)
T1 construct: purchased Sigma Aldrich; host or cells: porcine pancreas
T1 sequence (P00690 16-511): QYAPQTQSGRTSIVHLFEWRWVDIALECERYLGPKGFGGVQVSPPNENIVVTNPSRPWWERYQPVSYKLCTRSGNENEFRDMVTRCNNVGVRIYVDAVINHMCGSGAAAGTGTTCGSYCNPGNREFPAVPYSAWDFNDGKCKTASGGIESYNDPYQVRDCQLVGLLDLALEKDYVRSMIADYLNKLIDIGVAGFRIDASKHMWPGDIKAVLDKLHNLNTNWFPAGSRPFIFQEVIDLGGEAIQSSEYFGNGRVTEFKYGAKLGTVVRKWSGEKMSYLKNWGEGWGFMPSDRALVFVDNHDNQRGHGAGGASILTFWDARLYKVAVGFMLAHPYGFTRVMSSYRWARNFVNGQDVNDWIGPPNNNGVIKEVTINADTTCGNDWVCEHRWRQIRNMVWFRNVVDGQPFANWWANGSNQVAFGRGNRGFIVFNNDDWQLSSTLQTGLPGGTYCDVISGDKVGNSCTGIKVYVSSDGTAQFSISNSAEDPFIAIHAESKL
Description: (§1) Aldose Reductase Inhibitor Screening Kit (Biovision, Milpitas, CA, USA) was used for the aldose reductase inhibition assay.
A pre-incubation mixture was prepared which contained 40 mM phosphate buffer (pH 6.9) together with different concentrations (1, 5, 10, 50, 100, 200 µg/mL) of the compounds. A 0.2 U of α-amylase enzyme was added to this mixture, and the plate was then incubated for 15 min at 37 °C. Then, 2-chloro-4-nitrophenyl maltotrioside (CNPG3) substrate was added, where the final concentration was 0.9 µmole/mL. […] A control which was devoid of the compounds was also run in parallel.

[4] = target: α-glucosidase enzyme from Saccharomyces cerevisiae; assay: α-glucosidase inhibition assay (PNP-G substrate); assay type: biochemical; conditions: experimental; means ± SD of three independent replicates
Description: as §1
The activity of the compounds was assessed spectrophotometrically according to Li et al., with slight modifications. In a volume of 100 µL of 40 mM phosphate buffer (pH 6.9), different concentrations (1, 5, 10, 50, 100, 200 µg/mL) of the compounds were prepared. The tested samples were added to a reaction mixture in a 96-well microplate containing 20 µL of the phosphate buffer and 20 µL of 5 mM p-nitrophenyl α -D-glucopyranoside (PNP-G) in the buffer. […] The IC50 for test compounds as well as the standard was calculated and presented.

[5] = target: T2, porcine pancreatic lipase (Sus scrofa, UniProt P00591); assay: porcine pancreatic lipase inhibition assay (PNPB substrate); assay type: biochemical; conditions: experimental; means ± SD of three independent replicates; read-out: LIP IC50 (lipase inhibition) (converted)
T2 construct: purchased Sigma Aldrich
T2 sequence (P00591 1-450): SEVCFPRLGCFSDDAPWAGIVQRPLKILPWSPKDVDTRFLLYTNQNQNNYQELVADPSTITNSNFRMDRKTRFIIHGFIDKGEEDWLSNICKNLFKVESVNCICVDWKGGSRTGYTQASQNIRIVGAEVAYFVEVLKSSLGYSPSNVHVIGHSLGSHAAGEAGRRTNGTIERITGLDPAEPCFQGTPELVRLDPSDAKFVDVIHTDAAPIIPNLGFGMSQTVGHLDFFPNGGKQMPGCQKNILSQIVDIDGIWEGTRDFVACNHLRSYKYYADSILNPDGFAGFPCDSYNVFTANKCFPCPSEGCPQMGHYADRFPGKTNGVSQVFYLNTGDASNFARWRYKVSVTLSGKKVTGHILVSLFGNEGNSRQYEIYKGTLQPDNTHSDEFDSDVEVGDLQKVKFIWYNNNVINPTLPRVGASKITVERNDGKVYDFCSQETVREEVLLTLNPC
Description: as §1
The porcine pancreatic lipase inhibition assay was utilized in this work, with modifications made based on a previous study. A stock solution of each compound at 1 mg/mL in 10% DMSO was used to prepare […] with concentrations 1, 5, 10, 50, 100, 200 µg/mL by means of dilution with methanol. Just before usage, the pancreatic lipase enzyme was freshly produced as a 1 mg/mL stock solution. […] In individual test tubes, 0.1 mL of porcine pancreatic lipase (1 mg/mL) was mixed with 0.2 mL of each compound concentration. To achieve a final volume of 1 mL, the Tri-HCl solution (pH 7.4) was added, and the mixtures were incubated at 25 °C for 15 min. Following the incubation, 0.1 mL of PNPB solution was introduced to each test tube. The mixtures were once again incubated for 30 min at 37 °C. […] All tests were conducted in triplicate, and the inhibition was calculated as per Equation (1).(1) %Lipase Inhibition=AB−AE/AB×100 where AB is the recorded absorbance of the blank solution, and AE is the recorded absorbance of the compound’s solution.

aldose reductase = target: T3, aldose reductase (Homo sapiens, UniProt P15121); assay: aldose reductase inhibition assay (Aldose Reductase Inhibitor Screening Kit); assay type: biochemical; conditions: experimental; means ± SD of three independent replicates; read-out: ALR IC50 (aldose reductase inhibition) (converted)
T3 construct: purchased Biovision, Milpitas, CA, USA
Description: Aldose Reductase Inhibitor Screening Kit (Biovision, Milpitas, CA, USA) was used for the aldose reductase inhibition assay. Determination of the aldose reductase inhibitory effectiveness of the investigated compounds was performed kinetically using the Aldose Reductase Inhibitor Screening Kit (Biovision, Milpitas, CA, USA), according to the manufacturer's protocol. The decrease in the absorption of NADPH at 340 nm was measured in a mixture containing NADPH, the enzyme, and its substrate, […], in addition to test samples [21]. […] After incubation, 40 μL of enzyme substrate in assay buffer was added, and the absorbance was measured at 340 nm kinetically for 60-90 min at 37 °C. A background control free from the enzyme was run and subtracted from the readings. The IC50 was calculated and presented for the samples and the standard.

[6] = Cupric ion-reducing antioxidant capacity (CUPRAC) assay; conditions: concentration for 50% of maximal cupric-reducing activity; mean ± SD, triplicate
Description: The total antioxidant capacity of the tested monoterpenes was also assessed using the Cupric ion-reducing antioxidant capacity (CUPRAC) assay, which measures the ability of antioxidants to reduce the Cu^2+-neocuproine complex to the stable-colored Cu^+-neocuproine chelate, absorbing at 450 nm. The assay was carried out following the protocol provided by the CUPRAC assay kit (Bioquochem, Asturias, Spain), with slight modifications to accommodate the tested compounds according to Salem et al.. The CUPRAC working solution consisted of a mixture of copper (II) chloride (10 mM), neocuproine (7.5 mM), and ammonium acetate buffer (1 M, pH 7.0) in a 1:1:1 volume ratio. For the assay, 40 µL of each test solution (prepared in methanol at concentrations ranging from 1 to 200 µg/mL) was added to 200 µL of the CUPRAC working solution in a well of a 96-well plate. The plate was incubated at room temperature for 30 min in the dark to allow full color development. The absorbance was then measured at 450 nm using a microplate spectrophotometer (Thermo Fisher Scientific Inc., Waltham, MA, USA). […] All tests were conducted in triplicate, and results are presented as mean ± SD.

For `O=C1O[C@H]([C@@H](O)CO)C(O)=C1O` [AA, ascorbic acid, reference compound], which “ABTS IC50” value [1] is on record?
The value was 136.78 ± 5.97 µg/mL.

And the “FRAP EC50” value [2]?
Its value is 56.92 ± 2.99 µg/mL.

With `Cc1cc(C(C)(C)C)c(O)c(C(C)(C)C)c1` [BHT, butylated hydroxytoluene, reference compound] as the molecule, how does the “ABTS IC50” value [1] read?
Its value is 153.55 ± 9.65 µg/mL.

And the “FRAP EC50” value [2]?
The value was 63.88 ± 4.83 µg/mL.

What does the source list for `CC12CCC(CC1=O)C2(C)C` (centres unmarked) [Camphor]?
ABTS IC50 [1]: 755.82 ± 67.30 µg/mL; FRAP EC50 [2]: 1459.83 ± 39.96 µg/mL; IC50 [3]: 2340 µM; AGI IC50 (α-glucosidase inhibition) [4]: 484.95 ± 17.65 µg/mL; IC50 [5]: 3540 µM; IC50 (aldose reductase): 1710 µM

Which “ABTS IC50” value [1] does the source give for `C=CCc1ccc(O)c(OC)c1` [Eugenol] here?
The value was 19.42 ± 0.58 µg/mL.

And the “FRAP EC50” value [2]?
The value was 78.55 ± 8.74 µg/mL.

And the “CUPRAC IC50” value [6]?
The value was 39.53 ± 2.83 µg/mL.

And the IC50 [3]?
Its IC50 is 339 µM.

What about the “AGI IC50 (α-glucosidase inhibition)” value [4] of the same molecule?
Its value is 84.93 ± 6.14 µg/mL.

And the IC50 [5]?
Its IC50 is 388 µM.

And the IC50 (aldose reductase)?
The IC50 was 241 µM.

Which “ABTS IC50” value [1] does the source give for `CC1=CCC(C(C)(C)O)CC1` (stereo not drawn) [Terpineol, α-terpineol] here?
Its value is 476.49 ± 19.93 µg/mL.

And the “FRAP EC50” value [2]?
The value was 389.01 ± 9.53 µg/mL.

What about the IC50 [3] of the same molecule?
The IC50 was 1740 µM.

And the “AGI IC50 (α-glucosidase inhibition)” value [4]?
Its value is 340.42 ± 23.19 µg/mL.

And the IC50 [5]?
Its IC50 is 392 µM.

And the IC50 (aldose reductase)?
The IC50 was 899 µM.
